From the supplement of paper PMC10307832

Tests used:
Experiment in all cases: relative viability (nuclei count vs DMSO), 5 days (fraction); higher = more cells survive
17-AAG + Lapatinib = compound: C=CCNC1=C2C[C@@H](C)C[C@H](OC)[C@H](O)[C@@H](C)/C=C(\C)[C@H](OC(N)=O)[C@@H](OC)/C=C\C=C(/C)C(=O)NC(=CC1=O)C2=O [17-AAG] + CS(=O)(=O)CCNCc1ccc(-c2ccc3ncnc(Nc4ccc(OCc5cccc(F)c5)c(Cl)c4)c3c2)o1 [Lapatinib] (partner 2 µM)
In short: (§1)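 Dosing by pin tool came one day after lung cancer cell lines were seeded in 1536-well plates, using either one drug or a fixed anchor-drug dose plus five library-drug doses (not always all listed) in √10 steps. After 5 days, nuclei were counted on 4× images. Relative viability is treated-well nuclei count divided by vehicle-well nuclei count, and values are medians of duplicate plates.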

17-AAG + Olaparib = compound: C=CCNC1=C2C[C@@H](C)C[C@H](OC)[C@H](O)[C@@H](C)/C=C(\C)[C@H](OC(N)=O)[C@@H](OC)/C=C\C=C(/C)C(=O)NC(=CC1=O)C2=O [17-AAG] + O=C(c1cc(Cc2n[nH]c(=O)c3ccccc23)ccc1F)N1CCN(C(=O)C2CC2)CC1 [Olaparib] (partner 8 µM)
In short: as §1

17-AAG + Phenformin = compound: C=CCNC1=C2C[C@@H](C)C[C@H](OC)[C@H](O)[C@@H](C)/C=C(\C)[C@H](OC(N)=O)[C@@H](OC)/C=C\C=C(/C)C(=O)NC(=CC1=O)C2=O [17-AAG] + N=C(N)NC(=N)NCCc1ccccc1 [Phenformin] (partner 250 µM)
In short: as §1

17-AAG + Trametinib = compound: C=CCNC1=C2C[C@@H](C)C[C@H](OC)[C@H](O)[C@@H](C)/C=C(\C)[C@H](OC(N)=O)[C@@H](OC)/C=C\C=C(/C)C(=O)NC(=CC1=O)C2=O [17-AAG] + CC(=O)Nc1cccc(-n2c(=O)n(C3CC3)c(=O)c3c(Nc4ccc(I)cc4F)n(C)c(=O)c(C)c32)c1 [Trametinib] (partner 0.02 µM)
In short: as §1

| Cell Line | relative viability (17-AAG + Lapatinib; first compound 0.00128 µM) | relative viability (17-AAG + Lapatinib; first compound 0.004048 µM) | relative viability (17-AAG + Lapatinib; first compound 0.0128 µM) | relative viability (17-AAG + Lapatinib; first compound 0.04048 µM) | relative viability (17-AAG + Lapatinib; first compound 0.128 µM) | relative viability (17-AAG + Olaparib; first compound 0.00128 µM) | relative viability (17-AAG + Olaparib; first compound 0.004048 µM) | relative viability (17-AAG + Olaparib; first compound 0.0128 µM) | relative viability (17-AAG + Olaparib; first compound 0.04048 µM) | relative viability (17-AAG + Olaparib; first compound 0.128 µM) | relative viability (17-AAG + Phenformin; first compound 0.00128 µM) | relative viability (17-AAG + Phenformin; first compound 0.004048 µM) | relative viability (17-AAG + Phenformin; first compound 0.0128 µM) | relative viability (17-AAG + Phenformin; first compound 0.04048 µM) | relative viability (17-AAG + Phenformin; first compound 0.128 µM) | relative viability (17-AAG + Trametinib; first compound 0.00128 µM) | relative viability (17-AAG + Trametinib; first compound 0.004048 µM) | relative viability (17-AAG + Trametinib; first compound 0.0128 µM) | relative viability (17-AAG + Trametinib; first compound 0.04048 µM) | relative viability (17-AAG + Trametinib; first compound 0.128 µM) |
| --- | --- | --- | --- | --- | --- | --- | --- | --- | --- | --- | --- | --- | --- | --- | --- | --- | --- | --- | --- | --- |
| NCI-H322M | 0.616 | 0.612 | 0.65 | 0.522 | 0.294 | 0.781 | 0.857 | 0.409 | 0.418 | 0.414 | 0.77 | 0.808 | 0.311 | 0.28 | 0.303 | 0.512 | 0.547 | 0.452 | 0.536 | 0.403 |
| NCI-H1651 | 0.841 | 0.874 | 0.519 | 0.168 | 0.146 | 0.173 | 0.19 | 0.21 | 0.153 | 0.159 | 0.335 | 0.548 | 0.242 | 0.151 | 0.107 | 0.781 | 0.855 | 0.838 | 0.77 | 0.604 |
| PC-14 | 0.315 | 0.304 | 0.311 | 0.156 | 0.113 | 0.298 | 0.132 | 0.0665 | 0.0524 | 0.0698 | 0.449 | 0.44 | 0.126 | 0.123 | 0.109 | 0.619 | 0.111 | 0.0838 | 0.101 | 0.0786 |
| NCI-H647 | 1.15 | 0.386 | 0.0807 | 0.0919 | 0.0634 | 0.575 | 0.237 | 0.0687 | 0.0686 | 0.0642 | 0.569 | 0.446 | 0.0903 | 0.103 | 0.103 | 0.402 | 0.29 | 0.0765 | 0.0969 | 0.0756 |
| SW 1573 | 1.06 | 1.21 | 0.897 | 0.217 | 0.117 | 0.441 | 0.234 | 0.182 | 0.113 | 0.0907 | 0.34 | 0.257 | 0.123 | 0.145 | 0.1 | 0.589 | 0.381 | 0.161 | 0.117 | 0.0829 |
| NCI-H460 | 0.962 | 0.451 | 0.016 | 0.0135 | 0.0137 | 0.476 | 0.318 | 0.0627 | 0.0448 | 0.0462 | 0.468 | 0.332 | 0.0221 | 0.021 | 0.0236 | 0.202 | 0.0484 | 0.0114 | 0.0258 | 0.0229 |
| NCI-H661 | 0.445 | 0.436 | 0.47 | 0.416 | 0.259 | 0.804 | 0.716 | 0.529 | 0.333 | 0.253 | 0.304 | 0.293 | 0.293 | 0.256 | 0.188 | 0.588 | 0.533 | 0.522 | 0.295 | 0.23 |
| SK-MES-1 | 0.55 | 0.559 | 0.405 | 0.188 | 0.145 | 0.732 | 0.494 | 0.184 | 0.17 | 0.16 | 0.697 | 0.561 | 0.389 | 0.202 | 0.194 | 0.562 | 0.401 | 0.221 | 0.179 | 0.168 |
| NCI-H1792 | 0.783 | 1.02 | 0.704 | 0.638 | 0.115 | 0.456 | 0.284 | 0.221 | 0.0633 | 0.0524 | 0.338 | 0.216 | 0.066 | 0.0797 | 0.0405 | 0.483 | 0.337 | 0.216 | 0.0858 | 0.056 |
| NCI-H1355 | 0.97 | 0.979 | 0.776 | 0.223 | 0.159 | 0.749 | 0.718 | 0.459 | 0.2 | 0.136 | 0.492 | 0.457 | 0.388 | 0.186 | 0.165 | 0.466 | 0.446 | 0.363 | 0.241 | 0.167 |
| UMC-11 | 0.887 | 0.992 | 0.566 | 0.204 | 0.127 | 0.519 | 0.376 | 0.261 | 0.0963 | 0.174 | 0.297 | 0.292 | 0.249 | 0.223 | 0.19 | 0.672 | 0.773 | 0.629 | 0.234 | 0.145 |
| NCI-H2405 | 1.04 | 0.784 | 0.193 | 0.203 | 0.138 | 0.797 | 0.856 | 0.275 | 0.233 | 0.168 | 0.398 | 0.383 | 0.33 | 0.209 | 0.185 | 0.663 | 0.482 | 0.338 | 0.204 | 0.171 |
| LCLC-97TM1 | 0.903 | 1.12 | 0.647 | 0.405 | 0.0945 | 0.423 | 0.359 | 0.406 | 0.302 | 0.255 | 0.454 | 0.402 | 0.428 | 0.247 | 0.143 | 0.201 | 0.172 | 0.163 | 0.232 | 0.152 |
| EMC-BAC-2 | 0.948 | 0.948 | 0.907 | 0.777 | 0.16 | 0.533 | 0.516 | 0.316 | 0.334 | 0.273 | 0.576 | 0.535 | 0.427 | 0.261 | 0.189 | 0.946 | 0.821 | 0.765 | 0.335 | 0.235 |
| NCI-H1975 | 0.872 | 0.739 | 0.256 | 0.166 | 0.11 | 0.745 | 0.765 | 0.158 | 0.128 | 0.121 | 0.385 | 0.287 | 0.204 | 0.13 | 0.0987 | 0.319 | 0.358 | 0.207 | 0.124 | 0.147 |
| BEN | 0.859 | 0.726 | 0.727 | 0.405 | 0.204 | 1.06 | 1.03 | 1.01 | 0.666 | 0.358 | 0.268 | 0.26 | 0.222 | 0.197 | 0.167 | 1.07 | 1.16 | 1.31 | 1.07 | 0.613 |
